One assay concerns the target ATR/ATRIP (Homo sapiens, UniProt Q13535). Description: Inhibition of recombinant human full length ATR/ATRIP expressed in mammalian expression system using c-Myc-tagged p53 as substrate incubated for 15 mins followed by substrate addition measured after 25 to 35 mins by TR-FRET assay. For orientation: TR-FRET usually uses a lanthanide donor and a delayed reading to cut background.

Assay [1] concerns the target T1, Serine/threonine-protein kinase ATR (Homo sapiens, UniProt Q13535). Description: Inhibition of ATR in human HT29 cells assessed as reduction in Chk1 phosphorylation at Ser345 residues after 4 hrs by Alexa Fluor 488 staining based fluorescence assay. It counts as cell-based.
In assay [2] the target is T1, Serine/threonine-protein kinase ATR. Description: Inhibition of ATR in human U2OS cells harboring ER-LBD fused TopBPI activation domain (978 to 1286 residues) assessed as reduction in 4-OHT-mediated nuclear translocation of TopBPI fragment by measuring gammaH2AX level after 24 hrs by Alexa Fluor 488 staining based fluorescence assay. It counts as cell-based.

The structures appear in SMILES notation. Where only a bound is given, the exact number is not on record here.

The text below walks through data of ChEMBL document CHEMBL4251726, “ATR Inhibitors as Potential Treatment for Cancers” (ACS Med Chem Lett, 2018).

T1 sequence (Q13535 whole entry, the tested form may be a part): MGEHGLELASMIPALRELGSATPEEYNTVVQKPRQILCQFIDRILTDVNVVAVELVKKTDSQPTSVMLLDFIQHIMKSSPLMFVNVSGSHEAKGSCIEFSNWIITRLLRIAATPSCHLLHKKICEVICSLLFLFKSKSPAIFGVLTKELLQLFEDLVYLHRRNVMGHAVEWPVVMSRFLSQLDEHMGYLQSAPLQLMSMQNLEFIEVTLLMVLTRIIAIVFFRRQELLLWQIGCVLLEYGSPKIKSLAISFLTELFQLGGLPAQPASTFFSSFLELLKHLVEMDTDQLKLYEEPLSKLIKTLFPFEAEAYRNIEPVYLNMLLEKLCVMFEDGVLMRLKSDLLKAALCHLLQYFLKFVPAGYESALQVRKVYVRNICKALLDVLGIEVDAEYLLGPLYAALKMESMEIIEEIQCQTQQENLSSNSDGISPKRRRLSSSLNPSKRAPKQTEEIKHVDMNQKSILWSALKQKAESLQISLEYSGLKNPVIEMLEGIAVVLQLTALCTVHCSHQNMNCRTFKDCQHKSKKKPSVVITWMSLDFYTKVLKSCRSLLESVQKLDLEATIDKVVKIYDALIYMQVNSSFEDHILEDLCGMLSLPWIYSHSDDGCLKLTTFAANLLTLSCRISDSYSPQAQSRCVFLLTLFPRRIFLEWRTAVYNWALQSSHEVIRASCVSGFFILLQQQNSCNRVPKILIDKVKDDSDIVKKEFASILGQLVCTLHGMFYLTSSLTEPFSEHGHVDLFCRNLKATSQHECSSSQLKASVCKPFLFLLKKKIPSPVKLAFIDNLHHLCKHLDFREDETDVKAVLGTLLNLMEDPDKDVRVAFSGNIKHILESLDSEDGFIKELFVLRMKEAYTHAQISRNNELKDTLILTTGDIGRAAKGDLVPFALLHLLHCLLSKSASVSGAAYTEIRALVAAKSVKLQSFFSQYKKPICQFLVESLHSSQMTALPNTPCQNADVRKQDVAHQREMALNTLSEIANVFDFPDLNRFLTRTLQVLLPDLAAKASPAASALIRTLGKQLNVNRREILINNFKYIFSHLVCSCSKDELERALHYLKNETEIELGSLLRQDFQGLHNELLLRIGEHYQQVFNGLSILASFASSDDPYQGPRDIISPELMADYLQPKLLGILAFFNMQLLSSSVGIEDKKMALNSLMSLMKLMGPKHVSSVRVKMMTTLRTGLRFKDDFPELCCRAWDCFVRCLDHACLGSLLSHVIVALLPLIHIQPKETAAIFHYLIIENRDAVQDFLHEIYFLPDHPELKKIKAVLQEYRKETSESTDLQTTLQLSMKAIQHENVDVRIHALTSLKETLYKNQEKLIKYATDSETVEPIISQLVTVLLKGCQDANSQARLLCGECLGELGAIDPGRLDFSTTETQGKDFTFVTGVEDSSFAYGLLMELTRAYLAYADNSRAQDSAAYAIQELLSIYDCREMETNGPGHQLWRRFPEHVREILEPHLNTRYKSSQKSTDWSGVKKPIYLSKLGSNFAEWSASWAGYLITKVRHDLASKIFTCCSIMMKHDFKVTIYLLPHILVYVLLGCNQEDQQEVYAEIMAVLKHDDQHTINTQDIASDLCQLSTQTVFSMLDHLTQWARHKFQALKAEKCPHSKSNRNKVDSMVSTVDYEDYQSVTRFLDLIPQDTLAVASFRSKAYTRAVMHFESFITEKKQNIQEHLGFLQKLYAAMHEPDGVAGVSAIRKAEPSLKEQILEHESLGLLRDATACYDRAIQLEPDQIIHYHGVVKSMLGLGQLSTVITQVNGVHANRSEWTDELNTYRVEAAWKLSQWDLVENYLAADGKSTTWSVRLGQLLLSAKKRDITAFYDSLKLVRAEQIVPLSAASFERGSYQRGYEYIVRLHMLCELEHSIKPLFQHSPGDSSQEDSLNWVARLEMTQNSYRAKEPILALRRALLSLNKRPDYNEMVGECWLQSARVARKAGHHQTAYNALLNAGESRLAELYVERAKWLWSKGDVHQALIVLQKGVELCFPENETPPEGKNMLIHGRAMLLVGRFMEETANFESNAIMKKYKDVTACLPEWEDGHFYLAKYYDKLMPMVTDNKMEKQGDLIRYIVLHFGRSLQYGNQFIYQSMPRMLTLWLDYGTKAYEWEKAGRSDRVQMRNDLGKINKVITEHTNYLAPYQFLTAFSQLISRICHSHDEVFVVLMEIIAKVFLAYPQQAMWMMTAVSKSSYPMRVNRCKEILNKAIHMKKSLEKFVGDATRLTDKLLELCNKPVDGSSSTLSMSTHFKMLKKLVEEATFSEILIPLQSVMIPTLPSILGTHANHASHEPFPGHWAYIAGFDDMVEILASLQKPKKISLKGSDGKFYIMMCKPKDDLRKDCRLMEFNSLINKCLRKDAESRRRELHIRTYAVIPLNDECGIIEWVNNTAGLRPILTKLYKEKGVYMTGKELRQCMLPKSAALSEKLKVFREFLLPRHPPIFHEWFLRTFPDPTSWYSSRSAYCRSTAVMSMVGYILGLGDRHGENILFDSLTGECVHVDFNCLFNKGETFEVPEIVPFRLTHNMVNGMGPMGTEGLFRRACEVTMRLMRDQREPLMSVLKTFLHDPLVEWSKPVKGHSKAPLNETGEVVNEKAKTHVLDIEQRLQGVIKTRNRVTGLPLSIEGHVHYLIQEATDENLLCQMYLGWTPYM
Sequence of ATR/ATRIP (Q13535 whole entry): as the sequence (Q13535 whole entry, the tested form may be a part) above
Sequence of ATR/ATRIP (Q8WXE1 whole entry, further chain): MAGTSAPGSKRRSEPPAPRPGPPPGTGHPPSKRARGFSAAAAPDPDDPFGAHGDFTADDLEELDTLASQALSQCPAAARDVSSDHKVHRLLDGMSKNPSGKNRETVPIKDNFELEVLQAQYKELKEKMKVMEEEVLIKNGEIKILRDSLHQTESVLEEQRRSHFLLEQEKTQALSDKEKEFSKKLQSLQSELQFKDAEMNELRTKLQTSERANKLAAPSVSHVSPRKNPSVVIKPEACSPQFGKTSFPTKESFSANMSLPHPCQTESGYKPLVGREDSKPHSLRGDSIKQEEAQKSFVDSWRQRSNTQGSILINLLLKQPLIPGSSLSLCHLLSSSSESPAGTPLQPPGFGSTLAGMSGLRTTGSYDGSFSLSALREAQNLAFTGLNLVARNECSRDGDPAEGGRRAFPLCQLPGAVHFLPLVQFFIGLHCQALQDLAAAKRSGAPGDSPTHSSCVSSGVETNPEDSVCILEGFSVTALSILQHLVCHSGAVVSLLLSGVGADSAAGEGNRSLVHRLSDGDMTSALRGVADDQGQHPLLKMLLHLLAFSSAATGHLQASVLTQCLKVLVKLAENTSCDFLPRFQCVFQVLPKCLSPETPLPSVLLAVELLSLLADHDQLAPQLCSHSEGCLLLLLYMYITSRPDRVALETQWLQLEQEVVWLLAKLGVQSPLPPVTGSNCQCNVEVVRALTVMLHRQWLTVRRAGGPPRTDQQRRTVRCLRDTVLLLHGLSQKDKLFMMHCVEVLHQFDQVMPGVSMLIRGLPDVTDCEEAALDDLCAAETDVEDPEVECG

Consider `CNc1nc2ccccc2n1-c1nc2c(c(C(C)(C)S(C)(=O)=O)n1)OC[C@@H]1COC[C@@H](C)N21`, for which the IC50 is less than 1 nM on ATR/ATRIP, less than 10 nM in assay [1] and less than 10 nM in assay [2].
`C[C@@H]1COC[C@H]2COc3c(nc(N(C)c4ccn[nH]4)nc3C(C)(C)S(C)(=O)=O)N21`: the IC50 on ATR/ATRIP fell in the range of 10 to 100 nM.
For `CNc1cnc2[nH]ccc2c1-c1nc2c(c(C(C)(C)S(C)(=O)=O)n1)OC[C@@H]1COC[C@@H](C)N21`, the results for the IC50 (at ATR/ATRIP; in assay [1]; in assay [2]) were less than 1 nM, less than 10 nM and 10 to 100 nM, respectively.
Turning to `CNc1nccn1-c1nc2c(c(C(C)(C)S(C)(=O)=O)n1)OC[C@@H]1COC[C@@H](C)N21`, the IC50 on ATR/ATRIP is 10 to 100 nM; in assay [2], 100 to 1000 nM.
Regarding `CCNc1cnc2[nH]ccc2c1-c1nc2c(c(C(C)(C)S(C)(=O)=O)n1)OC[C@@H]1COC[C@@H](C)N21`, the figures for the IC50 (on ATR/ATRIP; in assay [1]) were 1 to 10 nM and 10 to 100 nM, respectively.
As for `CNc1cnc2[nH]ccc2c1-c1nc2c(c(C(C)(C)O)n1)OC[C@@H]1COC[C@@H](C)N21`, the IC50 on ATR/ATRIP was less than 1 nM; in assay [1] it was 10 to 100 nM; in assay [2], 10 to 100 nM.

The IC50 is the concentration needed to halve the response being measured.
